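A five-concentration, 48-hour dose response in 96-well plates underlies each endpoint, interpolated linearly between surrounding concentrations. Abbreviation: GI50, concentration required for 50% inhibition of growth.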 Activity calls are given as the source filed them. Cut-off read from the data, not from the text of the source: active = GI50 up to about 1.1 µM and inactive = higher.
What was measured:
Test in all cases: NCI anticancer screen, dose series, 48 h
[1] = tested on: 786-0
[2] = tested on: A498
[3] = tested on: A549
[4] = tested on: ACHN
[5] = tested on: BT-549
[6] = tested on: CAKI-1
[7] = tested on: CCRF-CEM
[8] = tested on: COLO 205
[9] = tested on: EKVX
[10] = tested on: HCC 2998
[11] = tested on: HCT-116
[12] = tested on: HCT-15
[13] = tested on: HL-60
[14] = tested on: HOP-62
[15] = tested on: HOP-92
[16] = tested on: HT-29
[17] = tested on: Hs-578T
[18] = tested on: IGROV-1
[19] = tested on: K562
[20] = tested on: KM12
[21] = tested on: LOX IMVI
[22] = tested on: M14
[23] = tested on: MCF7
[24] = tested on: MDA-MB-231
[25] = tested on: MDA-MB-435
[26] = tested on: MDA-N
[27] = tested on: MOLT-4
[28] = tested on: Malme-3M
[29] = tested on: NCI-H226
[30] = tested on: NCI-H23
[31] = tested on: NCI-H460
[32] = tested on: NCI-H522
[33] = tested on: NCI/ADR-RES
[34] = tested on: OVCAR-3
[35] = tested on: OVCAR-4
[36] = tested on: OVCAR-5
[37] = tested on: OVCAR-8
[38] = tested on: PC-3
[39] = tested on: RPMI-8226
[40] = tested on: RXF 393
[41] = tested on: SF-268
[42] = tested on: SF-295
[43] = tested on: SF-539
[44] = tested on: SK-MEL-28
[45] = tested on: SK-MEL-2
[46] = tested on: SK-MEL-5
[47] = tested on: SK-OV-3
[48] = tested on: SN12C
[49] = tested on: SNB-19
[50] = tested on: SNB-75
[51] = tested on: SR
[52] = tested on: SW-620
[53] = tested on: T47D
[54] = tested on: TK-10
[55] = tested on: U-251
[56] = tested on: UACC-257
[57] = tested on: UACC-62
[58] = tested on: UO-31
[59] = tested on: DU-145

Measured: GI50

CC(CC(=O)CO[C@H]1[C@H](O)[C@@H](O)[C@@H](O)[C@@H]2NC(=O)c3c(cc4c(c3O)OCO4)[C@H]21)OC1OC(CO)C(O)C(O)C1O (some centres undefined)
active: [1] 0.451 µM | [2] 1.09 µM | [3] 0.646 µM | [4] 0.444 µM | [5] 0.495 µM | [6] 0.857 µM | [7] 0.182 µM | [8] 0.272 µM | [9] 0.553 µM | [10] 0.218 µM | [11] 0.275 µM | [13] 0.372 µM | [14] 0.366 µM | [15] 0.51 µM | [16] 0.452 µM | [17] 0.4 µM | [18] 0.547 µM | [19] 0.309 µM | [20] 0.3 µM | [21] 0.255 µM | [22] 0.425 µM | [23] 0.283 µM | [24] 0.355 µM | [25] 0.392 µM | [26] 0.508 µM | [27] 0.25 µM | [28] 0.488 µM | [29] 0.522 µM | [30] 0.441 µM | [31] 0.432 µM | [32] 0.311 µM | [33] 0.543 µM | [34] 0.451 µM | [35] 0.277 µM | [37] 0.313 µM | [38] 0.338 µM | [39] 0.397 µM | [40] 0.269 µM | [41] 0.367 µM | [42] 1.12 µM | [43] 0.419 µM | [44] 0.56 µM | [45] 0.242 µM | [46] 0.322 µM | [47] 0.469 µM | [48] 0.322 µM | [49] 0.304 µM | [50] 0.207 µM | [51] 0.325 µM | [52] 0.374 µM | [53] 0.203 µM | [54] 0.408 µM | [55] 0.239 µM | [56] 0.594 µM | [57] 0.733 µM
0.396 µM: [12]
inactive: [36] 1.26 µM | [58] 1.38 µM

COc1ccc2c(c1)CN1C(=N2)CSC1c1cccc(Br)c1 (centres undefined)
11 µM: [12]
inactive: [1] 17.8 µM | [3] 30.6 µM | [4] 19.8 µM | [5] 26.2 µM | [6] 16.3 µM | [8] 31.7 µM | [9] 22.1 µM | [10] 14.8 µM | [11] 19 µM | [13] 3.58 µM | [14] 46.8 µM | [15] 8.61 µM | [16] 20 µM | [17] 53.6 µM | [18] 43.9 µM | [19] 5.89 µM | [20] 19.1 µM | [21] 23.9 µM | [22] 52.1 µM | [23] 10.6 µM | [24] > 100 µM | [25] 6.15 µM | [26] 4.1 µM | [27] 6.82 µM | [28] 60.1 µM | [29] 4.86 µM | [30] 17.7 µM | [31] 30.1 µM | [32] 22.6 µM | [33] 48.8 µM | [35] 36.9 µM | [36] > 100 µM | [37] 69.8 µM | [38] 17.7 µM | [39] 6.44 µM | [40] 19.9 µM | [41] 52.8 µM | [42] 30.5 µM | [43] 15.4 µM | [44] 11.9 µM | [45] 24.2 µM | [46] 5.71 µM | [47] > 100 µM | [48] 20.4 µM | [49] 47.3 µM | [50] 14.9 µM | [51] 5.33 µM | [52] 15.8 µM | [53] 52.7 µM | [54] 59.8 µM | [55] 26.5 µM | [56] 20.3 µM | [57] 17.8 µM | [58] 17.5 µM

CCOc1cc(NC(C)=O)ccc1C(=O)NNS(=O)(=O)c1ccc(Cl)cc1Cl
active: [19] 0.232 µM
> 50 µM: [12]
inactive: [1] > 50 µM | [2] > 50 µM | [3] > 50 µM | [4] > 50 µM | [5] > 50 µM | [6] > 50 µM | [7] > 50 µM | [8] > 50 µM | [59] > 50 µM | [9] > 50 µM | [10] > 50 µM | [11] > 50 µM | [13] > 50 µM | [14] > 50 µM | [15] > 50 µM | [16] > 50 µM | [17] > 50 µM | [18] > 50 µM | [20] 31.5 µM | [21] 45.5 µM | [22] > 50 µM | [23] 26.4 µM | [25] 12.7 µM | [26] 10.6 µM | [27] 8.75 µM | [28] > 50 µM | [29] > 50 µM | [30] > 50 µM | [31] > 50 µM | [32] > 50 µM | [33] > 50 µM | [34] > 50 µM | [35] > 50 µM | [36] > 50 µM | [37] > 50 µM | [38] > 50 µM | [39] 7.48 µM | [40] > 50 µM | [41] > 50 µM | [42] > 50 µM | [43] > 50 µM | [44] > 50 µM | [45] > 50 µM | [46] 14.6 µM | [47] > 50 µM | [48] > 50 µM | [49] > 50 µM | [50] > 50 µM | [51] 13.9 µM | [52] > 50 µM | [53] > 50 µM | [56] > 50 µM | [57] > 50 µM | [58] > 50 µM

CSc1ccc(/C=C2\N=C(c3ccccc3)N(NC(=O)c3c(Cl)c(Cl)c(Cl)c(Cl)c3-c3nc4ccccc4[nH]3)C2=O)cc1
inactive: [1] 36 µM | [2] 30.8 µM | [3] 30.1 µM | [4] 28.8 µM | [5] 25.3 µM | [6] 21.7 µM | [7] 25.9 µM | [8] 22.4 µM | [59] 28.4 µM | [9] 25.5 µM | [10] 9.59 µM | [11] 25.2 µM | [13] 23.7 µM | [14] 4.11 µM | [15] 17.5 µM | [16] 36.2 µM | [17] 34.8 µM | [18] 1.79 µM | [19] 5.5 µM | [20] 6.84 µM | [21] 30.9 µM | [22] 29.6 µM | [23] 19.5 µM | [25] 3.27 µM | [26] 6.87 µM | [27] 20.7 µM | [28] 30.1 µM | [29] 14.2 µM | [30] 24.7 µM | [31] 4.43 µM | [32] 28.4 µM | [33] 25.1 µM | [34] 26.6 µM | [36] 81.7 µM | [37] 37.8 µM | [38] 36.6 µM | [41] 36.9 µM | [42] 4.49 µM | [43] 33 µM | [44] 30.8 µM | [45] 34.9 µM | [46] 21.7 µM | [47] 5.48 µM | [48] 31 µM | [49] 48.5 µM | [50] 8.3 µM | [51] 2.22 µM | [52] 29.9 µM | [53] 2.03 µM | [56] 28.4 µM | [57] 19.2 µM | [58] 27.4 µM
15.1 µM: [12]

NS(=O)(=O)c1nnc(NS(=O)(=O)c2cccc3cccnc23)s1
inactive: [1] > 100 µM | [2] > 100 µM | [3] > 100 µM | [4] > 100 µM | [5] > 100 µM | [6] > 100 µM | [7] > 100 µM | [8] > 100 µM | [59] > 100 µM | [9] > 100 µM | [10] > 100 µM | [11] > 100 µM | [14] > 100 µM | [15] > 100 µM | [17] > 100 µM | [19] > 100 µM | [20] > 100 µM | [21] > 100 µM | [22] > 100 µM | [23] > 100 µM | [24] > 100 µM | [25] > 100 µM | [26] > 100 µM | [27] > 100 µM | [29] > 100 µM | [30] > 100 µM | [31] > 100 µM | [33] > 100 µM | [34] > 100 µM | [35] > 100 µM | [36] > 100 µM | [37] > 100 µM | [39] > 100 µM | [40] > 100 µM | [41] > 100 µM | [42] > 100 µM | [43] > 100 µM | [44] > 100 µM | [45] > 100 µM | [46] > 100 µM | [47] > 100 µM | [48] > 100 µM | [49] > 100 µM | [51] 41.9 µM | [52] > 100 µM | [53] > 100 µM | [54] > 100 µM | [55] > 100 µM | [56] > 100 µM | [57] > 100 µM | [58] > 100 µM
> 100 µM: [12]

From ChEMBL document CHEMBL1201862, “PubChem BioAssay data set” (2004)
